{"source": "patent US9226927B2", "about": "“Gamma secretase inhibitors” (MERCK SHARP & DOHME CORP., priority 2011, dated 2016)", "biological_target": "γ-secretase (Homo sapiens (Human), UniProt P49768)", "experiment": "γ-secretase membrane assay with Aβ40 ECL immunoassay", "assay_type": "biochemical", "details": "membranes of 293 cells expressing C99 (SPC99-lon), 37° C. for 1 h, Aβ 40 by ECL immunoassay", "procedure": "Gamma-secretase activity was determined as described by Zhang et al. (Biochemistry, 40 (16), 5049-5055, 2001), which is herein incorporated by reference. Activity is expressed either as a percent inhibition or as the concentration of compound producing 50% inhibition of enzyme activity.\nThe construct SPC99-Ion, which contains the first 18 residues and the C-terminal 99 amino acids of APP carrying the London mutation, has been described (Zhang, L., Song, L., and Parker, E. (1999) J. Biol. Chem. 274, 8966-8972). Upon insertion into the membrane, the 17 amino acid signal peptide is processed, leaving an additional leucine at the N-terminus of Aβ. SPC99-lon was cloned into the pcDNA4/TO vector (Invitrogen) and transfected into 293 cells stably transfected with pcDNA6/TR, which is provided in the T-REx system (Invitrogen). The transfected cells were selected in Dulbecco's modified Eagle's media (DMEM) supplemented with 10% fetal bovine serum, 100 units/mL penicillin, 100 µg/mL streptomycin, 250 µg/mL zeocin, and 5 µg/mL blasticidin (Invitrogen). Colonies were screened for Aβ production by inducing C99 expression with […] tetracycline for 16-20 h and analyzing conditioned media with a sandwich immunoassay (see below). One of the clones, designated as pTRE.15, was used in these studies.\nC99 expression in cells was induced with […] tetracycline for 20 h. The cells were pretreated with […] 12-myristate 13-acetate (PMA) and […] brefeldin A (BFA) for 5-6 h at 37 C before harvesting. The cells were washed 3 times with cold phosphate-buffered saline (PBS) and harvested in buffer A containing 20 mM Hepes (pH 7.5), 250 mM sucrose, 50 mM KCl, 2 mM EDTA, 2 mM EGTA, and Complete protease inhibitor tablets (Roche Molecular Biochemicals). The cell pellets were flash-frozen in liquid nitrogen and stored at −70° C. before use.\nTo make membranes, the cells were resuspended in buffer A and lysed in a nitrogen bomb at 600 psi. The cell lysate was centrifuged at 1500 g for 10 min to remove nuclei and large cell debris. The supernatant was centrifuged at 100000 g for 1 h. The membrane pellet was resuspended in buffer A plus 0.5 M NaCl, and the membranes were collected by centrifugation at 200000 g for 1 h. The salt-washed membrane pellet was washed again in buffer A and centrifuged at 100000 g for 1 h. The final membrane pellet was resuspended in a small volume of buffer A using a Teflon-glass homogenizer. The protein concentration was determined, and membrane aliquots were flash-frozen in liquid nitrogen and stored at −70° C.\nTo measure γ-secretase activity, membranes were incubated at 37° C. for 1 h in 50 μL of buffer containing 20 mM Hepes (pH 7.0) and 2 mM EDTA. At the end of the incubation, Aβ 40 and Aβ 42 were measured using an electrochemiluminescence (ECL)-based immunoassay. Aβ 40 was identified with antibody pairs TAG-G2-10 and biotin-W02, while Aβ 42 was identified with TAG-G2-11 and biotin-4G8. The ECL signal was measured using an ECL-M8 instrument (IGEN International, Inc.) according to the manufacturer's instructions. The data presented were the means of the duplicate or triplicate measurements in each experiment. The characteristics of γ-secretase activity described were confirmed using more than five independent membrane preparations.", "data": [{"smiles": "O=S(=O)(CC[C@@H]1OCC[C@@]2(S(=O)(=O)c3ccc(Cl)cc3)c3c(F)ccc(F)c3OC[C@@H]12)CCn1cccn1", "note": "[Compound 4]", "values": [{"measurement": "IC50", "result": 1.4, "unit": "nM"}]}, {"smiles": "O=S(=O)(CC[C@@H]1OCC[C@@]2(S(=O)(=O)c3ccc(Cl)cc3)c3c(F)ccc(F)c3OC[C@@H]12)Cc1ccccn1", "note": "[Compound 8a]", "values": [{"measurement": "IC50", "result": 1.9, "unit": "nM"}]}, {"smiles": "O=S(=O)(CC[C@@H]1OCC[C@@]2(S(=O)(=O)c3ccc(Cl)cc3)c3c(F)ccc(F)c3OC[C@@H]12)c1cnccn1", "note": "[Compound 25c]", "values": [{"measurement": "IC50", "result": 5.5, "unit": "nM"}]}, {"smiles": "Cc1nc(CS(=O)(=O)CC[C@@H]2OCC[C@@]3(S(=O)(=O)c4ccc(Cl)cc4)c4c(F)ccc(F)c4OC[C@@H]23)no1", "note": "[Compound 14]", "values": [{"measurement": "IC50", "result": 5.8, "unit": "nM"}]}, {"smiles": "O=c1ccc(S(=O)(=O)CC[C@@H]2OCC[C@@]3(S(=O)(=O)c4ccc(Cl)cc4)c4c(F)ccc(F)c4OC[C@@H]23)c[nH]1", "note": "[Compound 25a]", "values": [{"measurement": "IC50", "result": 18.7, "unit": "nM"}]}, {"smiles": "O=S(=O)(CC[C@@H]1OCC[C@@]2(S(=O)(=O)c3ccc(Cl)cc3)c3c(F)ccc(F)c3OC[C@@H]12)c1cccnn1", "note": "[Compound 25b]", "values": [{"measurement": "IC50", "result": 4.5, "unit": "nM"}]}, {"smiles": "COc1ccc(S(=O)(=O)CC[C@@H]2OCC[C@@]3(S(=O)(=O)c4ccc(Cl)cc4)c4c(F)ccc(F)c4OC[C@@H]23)cn1", "note": "[Compound 25h]", "values": [{"measurement": "IC50", "result": 16.5, "unit": "nM"}]}, {"smiles": "O=S(=O)(CC[C@@H]1OCC[C@@]2(S(=O)(=O)c3ccc(Cl)cc3)c3c(F)ccc(F)c3OC[C@@H]12)Cc1cccnc1", "note": "[Compound 8b]", "values": [{"measurement": "IC50", "result": 6.6, "unit": "nM"}]}, {"smiles": "O=S(=O)(CC[C@@H]1OCC[C@@]2(S(=O)(=O)c3ccc(Cl)cc3)c3c(F)ccc(F)c3OC[C@@H]12)Cc1ncon1", "note": "[Compound 11]", "values": [{"measurement": "IC50", "result": 1.7, "unit": "nM"}]}, {"smiles": "O=c1[nH]cccc1S(=O)(=O)CC[C@@H]1OCC[C@@]2(S(=O)(=O)c3ccc(Cl)cc3)c3c(F)ccc(F)c3OC[C@@H]12", "note": "[Compound 27a]", "values": [{"measurement": "IC50", "result": 2.8, "unit": "nM"}]}, {"smiles": "O=S(=O)(CC[C@@H]1OCC[C@@]2(S(=O)(=O)c3ccc(Cl)cc3)c3c(F)ccc(F)c3OC[C@@H]12)c1ncccn1", "note": "[Compound 25e]", "values": [{"measurement": "IC50", "result": 6.4, "unit": "nM"}]}, {"smiles": "O=S(=O)(CC[C@@H]1OCC[C@@]2(S(=O)(=O)c3ccc(Cl)cc3)c3c(F)ccc(F)c3OC[C@@H]12)c1ccncn1", "note": "[Compound 25f]", "values": [{"measurement": "IC50", "result": 2.9, "unit": "nM"}]}, {"smiles": "O=S(=O)(CC[C@@H]1OCC[C@@]2(S(=O)(=O)c3ccc(Cl)cc3)c3c(F)ccc(F)c3OC[C@@H]12)c1ccnnc1", "note": "[Compound 25d]", "values": [{"measurement": "IC50", "result": 10.2, "unit": "nM"}]}, {"smiles": "O=S(=O)(CC[C@@H]1OCC[C@@]2(S(=O)(=O)c3ccc(Cl)cc3)c3c(F)ccc(F)c3OC[C@@H]12)c1cncnc1", "note": "[Compound 25g]", "values": [{"measurement": "IC50", "result": 12.9, "unit": "nM"}]}, {"smiles": "Nc1ncccc1S(=O)(=O)CC[C@@H]1OCC[C@@]2(S(=O)(=O)c3ccc(Cl)cc3)c3c(F)ccc(F)c3OC[C@@H]12", "note": "[Compound 27b]", "values": [{"measurement": "IC50", "result": 18, "unit": "nM"}]}]}
